Assay results from patent US6565892B2, “Synergistic fungicidal composition comprising a compound analogous to strobilurin” (Rhone-Poulenc Agrochimie, priority 1995, dated 2003).
Converted amounts (≈) assume the structure as drawn. Like-named read-outs stand apart in the source and are kept apart here.

System: Plasmopara viticola
Test: In vivo test with respect to Plasmopara viticola (grape downy mildew) on Chardonnay vine cuttings, preventive treatment 72 hours before infection
Conditions: in Vitis vinifera, spray 72 h before infection, reading 7 days after infection, read-out: dose of A alone which it is necessary to apply for the destruction of 50% of the parasite
Method: A suspension comprising the compounds A and B in a liquid mixture composed of a surface-active agent (oleate of polyoxyethylenated derivative of sorbitan) and water is prepared.
The component B is fosetyl-Al; the A/B ratio is 0.05, 0.07 and 0.1 (B/A=20, 15 and 10).
Vine (Vitis vinifera) cuttings, variety Chardonnay, are grown in small pots. When these seedlings are 2 months old (8- to 10-leaf stage, height of 10 to 15 cm), they are treated by spraying with the above suspension.
After 72 hours, each seedling is infected by spraying with an aqueous suspension of spores of Plasmopara viticola, which suspension is obtained from sporulated leaves infected 7 days previously. These spores are suspended at a concentration of 100,000 units per cm^3 of inoculum. Infection is carried out by spraying the inoculum at the undersurface of the leaves.
The infected seedlings are then incubated for seven days at 20-22° C. at 90-100% relative humidity under natural light.
Reading is carried out 7 days after infection, in comparison with the control seedlings.
The results obtained are reported in the form of points, corresponding to 50% destruction of the parasite, and are plotted on a Tammes isobole diagram which contains, on the abscissa, the doses of A expressed in ppm (mg/l) and, on the ordinate, the doses of B, also in ppm (mg/l). […]

Row | EC50 (A = SSF-129 alone) [µg/mL] | Compound | EC50 (A = ICIA5504 alone) [µg/mL]
1 | 4.6 (≈ 14.1 µM) | CNC(=O)/C(=N/OC)c1ccccc1COc1cc(C)ccc1C [SSF-129, N-methyl-(E)-methoxyimino[2-(2,5-dimethylphenoxymethyl)phenyl]acetamide] | –
2 | – | CO/C=C(/C(=O)OC)c1ccccc1Oc1cc(Oc2ccccc2C#N)ncn1 [ICIA5504, methyl (E)-2-{2-[6-(2-cyanophenoxy)pyrimidin-4-yloxy]phenyl}-3-methoxyacrylate] | 1.5 (≈ 3.72 µM)
